Test results published in PubChem BioAssay AID248 (DTP/NCI, 2004).
Where “and” joins values, the source holds several entries; their conditions need not be identical. Equal entries are not always repeated. Inconclusive results and toxic doses are left out. No stated cut-off is given here; in the data, active means T/C of 150% or more; inactive means T/C below 125%. Square brackets hold non-standard residues; d marks the D form. Peptide text beside a SMILES is read from it. * marks the point of attachment. ξ: configuration not given here. Cbz = O=C(OCc1ccccc1)*; ξL = CC(C)CC(N)C(=O)O; OBn = c1ccc(CO*)cc1

Tested on: L1210 leukemia ip in BDF1 mice, survival T/C
Assay: NCI In Vivo Anticancer Drug Screen. Data for tumor model L1210 Leukemia (intraperitoneal) in B6D2F1 (BDF1) mice
Settings: endpoint: mean survival time, higher = longer survival
How it was run: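 Value reflects the ratio of survival in compound-treated mice to survival in vehicle-treated controls, with both groups carrying the same transplanted tumor.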

[1] = dose: 100.0 mg/kg/injection, schedule: Q04DX003 (ip), vehicle: Klucel (hydroxypropylcellulose) (HPC)
[2] = dose: 200.0 mg/kg/injection, schedule: Q04DX003 (ip), vehicle: Klucel (hydroxypropylcellulose) (HPC)
[3] = dose: 400.0 mg/kg/injection, schedule: Q04DX003 (ip), vehicle: Klucel (hydroxypropylcellulose) (HPC)
[4] = dose: 100.0 mg/kg/injection, schedule: Q01DX009 (ip), vehicle: Klucel (hydroxypropylcellulose) (HPC)
[5] = dose: 200.0 mg/kg/injection, schedule: Q01DX009 (ip), vehicle: Klucel (hydroxypropylcellulose) (HPC)
[6] = dose: 400.0 mg/kg/injection, schedule: Q01DX009 (ip), vehicle: Klucel (hydroxypropylcellulose) (HPC)
[7] = dose: 100.0 mg/kg/injection, schedule: Q04DX002 (ip), vehicle: Klucel (hydroxypropylcellulose) (HPC)
[8] = dose: 200.0 mg/kg/injection, schedule: Q04DX002 (ip), vehicle: Klucel (hydroxypropylcellulose) (HPC)
[9] = dose: 100.0 mg/kg/injection, schedule: Q01DX001 (ip), vehicle: carboxymethylcellulose (CMC)
[10] = dose: 200.0 mg/kg/injection, schedule: Q01DX001 (ip), vehicle: carboxymethylcellulose (CMC)
[11] = dose: 400.0 mg/kg/injection, schedule: Q01DX001 (ip), vehicle: carboxymethylcellulose (CMC)
[12] = dose: 100.0 mg/kg/injection, schedule: Q01DX001 (ip), vehicle: saline
[13] = dose: 200.0 mg/kg/injection, schedule: Q01DX001 (ip), vehicle: saline
[14] = dose: 400.0 mg/kg/injection, schedule: Q01DX001 (ip), vehicle: saline
[15] = dose: 100.0 mg/kg/injection, schedule: Q01DX009 (ip), vehicle: saline with Tween-80
[16] = dose: 200.0 mg/kg/injection, schedule: Q01DX009 (ip), vehicle: saline with Tween-80
[17] = dose: 100.0 mg/kg/injection, schedule: Q01DX009 (ip), vehicle: saline
[18] = dose: 200.0 mg/kg/injection, schedule: Q01DX009 (ip), vehicle: saline
[19] = dose: 400.0 mg/kg/injection, schedule: Q01DX009 (ip), vehicle: saline

Measured: T/C

C/C(=N\NC(=S)Nc1cc(Cl)ccc1Cl)c1ccc(O)cc1O
inactive: dose: 100.0 mg/kg/injection, schedule: Q01DX001 (ip), vehicle: Klucel (hydroxypropylcellulose) (HPC) 88 % of control | dose: 200.0 mg/kg/injection, schedule: Q01DX001 (ip), vehicle: Klucel (hydroxypropylcellulose) (HPC) 96 % of control | dose: 400.0 mg/kg/injection, schedule: Q01DX001 (ip), vehicle: Klucel (hydroxypropylcellulose) (HPC) 95 % of control

CC(=O)/C(=C\c1ccccc1)c1ccccc1
inactive: [1] 96 % of control | [2] 91 % of control | [3] 98 % of control

COc1ccc(/C(=N\O)C(c2ccc(OC)cc2)C(Cl)(Cl)Cl)cc1 (stereo not given)
inactive: [4] 92 % of control | [5] 95 % of control | [6] 97 % of control

O=S1(=O)CC(c2ccccc2)(c2ccccc2)N1
inactive: [7] 108 % of control | [8] 112 % of control | dose: 400.0 mg/kg/injection, schedule: Q04DX002 (ip), vehicle: Klucel (hydroxypropylcellulose) (HPC) 96 % of control

COc1cc2cc3c4cc(OC)c(OC)cc4cc[n+]3c(/C=C/c3ccccc3)c2cc1OC
inactive: dose: 100.0 mg/kg/injection, schedule: Q04DX003 (ip), vehicle: carboxymethylcellulose (CMC) 102 % of control | dose: 200.0 mg/kg/injection, schedule: Q04DX003 (ip), vehicle: carboxymethylcellulose (CMC) 110 % of control | dose: 400.0 mg/kg/injection, schedule: Q04DX003 (ip), vehicle: carboxymethylcellulose (CMC) 100 % of control

CC(C)=CCCNC(=O)NS(=O)(=O)c1ccc(C)cc1
inactive: [1] 99 % of control | [2] 101 % of control | [3] 97 % of control

N=c1c2[nH]cnc2ncn1O
inactive: [9] 89 % of control | [10] 94 % of control | [11] 100 % of control

CC(=O)OCC1OC(n2cnc(N)c2C#N)C(OC(C)=O)C1OC(C)=O (stereo not given)
inactive: dose: 50.0 mg/kg/injection, schedule: Q01DX001 (ip), vehicle: saline 98 % of control | [12] 102 % of control | [13] 102 % of control | [14] 102 % of control

N#CNS(=O)(=O)c1ccccc1
inactive: [12] 98 % of control | [13] 92 % of control | [14] 98 % of control

COc1ccc(C(=O)O)c(O)c1O
inactive: [15] 102 % of control | [16] 104 % of control | dose: 400.0 mg/kg/injection, schedule: Q01DX009 (ip), vehicle: saline with Tween-80 101 % of control

COS(=O)(=O)c1ccc([N+](=O)[O-])cc1[N+](=O)[O-]
inactive: [12] 100 % of control | [13] 94 % of control | [14] 91 % of control

CC(CN=Cc1ccc(N(CCCl)CCCl)cc1)N=Cc1ccc(N(CCCl)CCCl)cc1 (stereo not given)
inactive: dose: 50.0 mg/kg/injection, schedule: Q01DX001 (ip), vehicle: carboxymethylcellulose (CMC) 109 % of control | [9] 111 % of control | [10] 109 % of control | [11] 111 % of control

CCOC(=O)C[n+]1ccc(C(=O)c2cc3ccccc3[nH]2)cc1
inactive: [15] 93 % of control | [16] 92 % of control

CC(C)CC(N)C(=O)OCc1ccccc1 (stereo not given)
inactive: [17] 105 % of control | dose: 100.0 mg/kg/injection, schedule: Q04DX003 (ip), vehicle: saline 97 % of control | [18] 107 % of control | dose: 200.0 mg/kg/injection, schedule: Q04DX003 (ip), vehicle: saline 101 % of control | [19] 98 % of control | dose: 400.0 mg/kg/injection, schedule: Q04DX003 (ip), vehicle: saline 97 % of control

C[C@]12CC[C@H]3[C@@H](CC[C@]4(O)C[C@@H](O)CC[C@]34/C=N/O)[C@@]1(O)CC[C@@H]2C1=COC(=O)C1
inactive: dose: 1.87 mg/kg/injection, schedule: Q01DX009 (ip), vehicle: carboxymethylcellulose (CMC) 93 % of control | dose: 3.75 mg/kg/injection, schedule: Q01DX009 (ip), vehicle: carboxymethylcellulose (CMC) 104 % of control | dose: 7.5 mg/kg/injection, schedule: Q01DX009 (ip), vehicle: carboxymethylcellulose (CMC) 106 % of control | dose: 30.0 mg/kg/injection, schedule: Q01DX009 (ip), vehicle: carboxymethylcellulose (CMC) 104 % of control | dose: 60.0 mg/kg/injection, schedule: Q01DX009 (ip), vehicle: carboxymethylcellulose (CMC) 93 % of control

CC(=O)NNc1ccc([N+](=O)[O-])cc1
inactive: [1] 89 % of control | [2] 94 % of control | [3] 89 % of control

O=C1CSC(c2ccccc2)N1 (stereo not given)
inactive: dose: 44.0 mg/kg/injection, schedule: Q04DX003 (ip), vehicle: Klucel (hydroxypropylcellulose) (HPC) 94 % of control and 103 % of control | dose: 67.0 mg/kg/injection, schedule: Q04DX003 (ip), vehicle: Klucel (hydroxypropylcellulose) (HPC) 98 % of control and 100 % of control | [4] 98 % of control | [1] 98 % of control and 100 % of control | dose: 150.0 mg/kg/injection, schedule: Q04DX003 (ip), vehicle: Klucel (hydroxypropylcellulose) (HPC) 98 % of control and 109 % of control | [5] 98 % of control | [2] 100 % of control | [6] 95 % of control | [3] 105 % of control

O=P(Nc1ccc(Cl)c(Cl)c1)(N1CCCCC1)N1CCCCC1
inactive: [1] 93 % of control | [2] 91 % of control | [3] 93 % of control

O=C1c2ccccc2-c2cc(Br)c(N=C(NO)C(F)(F)F)cc21
inactive: [9] 115 % of control | [10] 105 % of control | [11] 108 % of control

Nc1cccc(OCCCOc2cccc([N+](=O)[O-])c2)c1
inactive: dose: 50.0 mg/kg/injection, schedule: Q01DX009 (ip), vehicle: Klucel (hydroxypropylcellulose) (HPC) 106 % of control | [4] 90 % of control | [5] 90 % of control

CC[Si](C)(C)c1ccc(CCN2CC2)s1
inactive: [9] 113 % of control

O=C(N/N=C/c1ccccc1O)c1ccc(Cl)cc1
inactive: dose: 50.0 mg/kg/injection, schedule: Q01DX009 (ip), vehicle: saline with Tween-80 93 % of control | [15] 93 % of control | [16] 93 % of control

CCOc1ccc(NC(=O)c2cccc(Cl)c2)cc1
inactive: [17] 109 % of control | [18] 96 % of control | [19] 96 % of control

CC(C(=O)O)C(C)(O)C(C)(C)C (stereo not given)
inactive: dose: 100.0 mg/kg/injection, schedule: Q04DX002 (ip), vehicle: saline 104 % of control | dose: 200.0 mg/kg/injection, schedule: Q04DX002 (ip), vehicle: saline 97 % of control | dose: 400.0 mg/kg/injection, schedule: Q04DX002 (ip), vehicle: saline 108 % of control

c1cc(OCCN2CC2)ccn1
inactive: dose: 12.5 mg/kg/injection, schedule: Q01DX001 (ip), vehicle: carboxymethylcellulose (CMC) 98 % of control | dose: 25.0 mg/kg/injection, schedule: Q01DX001 (ip), vehicle: carboxymethylcellulose (CMC) 108 % of control

CC(C)CC(NC(=O)CNC(=O)CNC(=O)OCc1ccccc1)C(=O)OCc1ccccc1 (stereo not drawn) (Cbz-Gly-Gly-[ξL]-OBn)
inactive: [1] 94 % of control | [2] 96 % of control | [3] 100 % of control

Cc1ccc(CN(C)N=Nc2ccccc2)cc1
inactive: [7] 91 % of control | [8] 102 % of control

NC(CCn1cnc2c(=O)[nH]cnc21)C(=O)O (stereo not given)
inactive: [1] 101 % of control | [2] 102 % of control | [3] 96 % of control

CCN(CC)CC1CO1 (stereo not given)
inactive: dose: 7.5 mg/kg/injection, schedule: Q01DX009 (ip), vehicle: saline 102 % of control | dose: 15.0 mg/kg/injection, schedule: Q01DX009 (ip), vehicle: saline 97 % of control

NC(CSS(=O)(=O)O)=NCCSc1ccc(Cl)cc1
inactive: dose: 6.25 mg/kg/injection, schedule: Q01DX009 (ip), vehicle: Klucel (hydroxypropylcellulose) (HPC) 95 % of control | dose: 12.5 mg/kg/injection, schedule: Q01DX009 (ip), vehicle: Klucel (hydroxypropylcellulose) (HPC) 104 % of control | dose: 12.5 mg/kg/injection, schedule: Q04DX002 (ip), vehicle: Klucel (hydroxypropylcellulose) (HPC) 100 % of control | dose: 25.0 mg/kg/injection, schedule: Q01DX009 (ip), vehicle: Klucel (hydroxypropylcellulose) (HPC) 107 % of control | dose: 25.0 mg/kg/injection, schedule: Q04DX002 (ip), vehicle: Klucel (hydroxypropylcellulose) (HPC) 100 % of control

O=C(O)C1CC1(Br)Br (stereo not given)
inactive: dose: 100.0 mg/kg/injection, schedule: Q04DX003 (ip), vehicle: acetone 87 % of control
